Experimental data reported in patent publication US6608086B2, “Dihydropyridines and new uses thereof” (Synaptic Pharmaceutical Corporation, priority 1993, dated 2003).
Where a name gives a salt, the structure may show the parent alone. Read-outs that look alike come from different tables or passages of the source.

Tests used:
[1] = biological target: T1, α1A Human Adrenergic Receptor (Homo sapiens, UniProt P25100); experiment: Radioligand binding, [3H]prazosin, cloned human α1A adrenergic receptor
T1 construct: The entire coding region of α1A (1719 bp); expressed in transfected cells
T1 sequence (P25100 1-572): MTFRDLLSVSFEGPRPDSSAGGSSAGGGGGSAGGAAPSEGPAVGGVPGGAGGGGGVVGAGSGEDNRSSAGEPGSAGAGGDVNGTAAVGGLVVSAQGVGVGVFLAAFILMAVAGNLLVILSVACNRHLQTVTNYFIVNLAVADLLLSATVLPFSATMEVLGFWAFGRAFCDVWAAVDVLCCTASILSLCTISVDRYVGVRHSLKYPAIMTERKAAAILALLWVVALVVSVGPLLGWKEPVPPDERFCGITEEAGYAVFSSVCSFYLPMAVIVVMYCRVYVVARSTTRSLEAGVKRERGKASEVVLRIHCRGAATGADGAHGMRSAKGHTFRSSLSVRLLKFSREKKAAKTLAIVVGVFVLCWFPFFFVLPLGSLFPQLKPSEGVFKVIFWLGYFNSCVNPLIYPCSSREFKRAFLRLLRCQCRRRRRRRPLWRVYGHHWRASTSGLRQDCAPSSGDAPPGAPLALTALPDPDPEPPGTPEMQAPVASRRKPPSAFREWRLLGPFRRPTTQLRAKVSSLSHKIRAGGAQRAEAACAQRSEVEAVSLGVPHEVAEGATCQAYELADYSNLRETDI
Outline: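 Membranes from LM(tk−) cells transfected with human α1A were incubated with 0.5 nM [3H]prazosin in 50 mM Tris-HCl, 1 mM MgCl2, 0.1% ascorbic acid, pH 7.5, for 20 min at 37° C. Nonspecific binding was defined with 10 μM phentolamine. Bound ligand was separated by GF/B filtration.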

[2] = biological target: T2, α1C Human Adrenergic Receptor (Homo sapiens, UniProt P35348); experiment: Radioligand binding, [3H]prazosin, cloned human α1C adrenergic receptor
T2 construct: The entire coding region of α1C (1401 bp); expressed in transfected cells
T2 sequence (P35348 1-466): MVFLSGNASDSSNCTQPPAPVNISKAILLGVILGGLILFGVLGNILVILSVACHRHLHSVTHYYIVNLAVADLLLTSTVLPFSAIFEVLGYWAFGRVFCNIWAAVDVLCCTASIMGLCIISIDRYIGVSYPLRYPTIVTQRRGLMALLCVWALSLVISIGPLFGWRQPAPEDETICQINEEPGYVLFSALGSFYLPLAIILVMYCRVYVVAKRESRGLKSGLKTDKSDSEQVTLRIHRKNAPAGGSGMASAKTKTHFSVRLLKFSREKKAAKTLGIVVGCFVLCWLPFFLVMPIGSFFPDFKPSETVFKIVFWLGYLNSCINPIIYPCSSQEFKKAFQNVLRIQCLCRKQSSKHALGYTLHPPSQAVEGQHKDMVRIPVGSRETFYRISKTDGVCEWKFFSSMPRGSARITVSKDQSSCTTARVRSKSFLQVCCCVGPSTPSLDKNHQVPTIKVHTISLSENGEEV
Outline: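 Stably transfected mouse LM(tk−) fibroblast membranes bearing the cloned human α1C adrenoceptor served as receptor source. Specific binding was taken as the portion of 0.5 nM [3H]prazosin displaceable by 10 μM phentolamine after 20 min at 37° C., pH 7.5, in Mg2+/ascorbate-containing Tris buffer.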

α2C receptor = biological target: T3, α2C receptor (Homo sapiens, UniProt P18825); experiment: Competition binding, [3H]rauwolscine, human α2C receptor
T3 construct: host or cells: LM(tk-) cells, line L-α2C
T3 sequence (P18825 1-462): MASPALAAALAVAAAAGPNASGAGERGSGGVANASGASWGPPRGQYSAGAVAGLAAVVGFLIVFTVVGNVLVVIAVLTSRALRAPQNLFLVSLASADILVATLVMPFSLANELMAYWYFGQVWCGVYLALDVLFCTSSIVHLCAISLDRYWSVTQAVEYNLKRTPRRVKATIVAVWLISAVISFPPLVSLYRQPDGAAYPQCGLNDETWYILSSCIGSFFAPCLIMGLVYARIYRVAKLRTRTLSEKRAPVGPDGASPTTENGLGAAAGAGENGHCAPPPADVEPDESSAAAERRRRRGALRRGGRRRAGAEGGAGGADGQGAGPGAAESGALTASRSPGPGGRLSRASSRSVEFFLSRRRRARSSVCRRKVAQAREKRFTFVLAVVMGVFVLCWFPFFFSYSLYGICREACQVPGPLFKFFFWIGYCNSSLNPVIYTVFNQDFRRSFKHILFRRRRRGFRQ
Outline: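 Lysates of LM(tk−) cells stably expressing human α2A, α2B or α2C receptors in 25 mM glycylglycine pH 7.6. Equilibrium competition against 0.5 nM [3H]rauwolscine, with 10 μM phentolamine defining nonspecific binding. Bound ligand separated by GF/B filtration.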

[3] = cloned human α1C receptor, LM(tk-) cell membranes, read-out: PKi alpha-1 1c (converted)
[4] = [3H]prazosin, cloned human receptor in LM(tk-) cell membranes, SEM and n in lines below, read-out: pKi alpha-1 1a (converted)
[5] = cloned human receptor in LM(tk-) cell membranes, SEM and n in lines below, read-out: pKi alpha-1 1c (converted)
[6] = [3H]rauwolscine, LM(tk-) cell line L-α2C, SEM and n in lines below, read-out: pKi alpha-2 2c (converted)
[7] = [3H]prazosin, cloned human α1A receptor, LM(tk−) cell membranes
[8] = cloned human α1C receptor, LM(tk−) cell membranes
[9] = [3H]rauwolscine, human α2C receptor, LM(tk−) cells

Structure (SMILES): CCOC(=O)C1(c2ccccc2)CCN(CCCNC(=O)C2=C(COCC(F)(F)F)NC(C)=C(C(N)=O)C2c2ccc([N+](=O)[O-])cc2)CC1 (stereo not drawn) [Example 243, 5-Carboxamido-3-(N-(3-(4-ethoxycarbonyl-4-phenylpiperidin-1yl)propyl))carboxamido-2-((2,2,2-trifluoroethyl)oxy)methyl-1,4dihydro-6-methyl-4-(4-nitro)phenylpyridine]
- Ki ([1]; [3H]prazosin, cloned human α1A receptor, LM(tk-) cell membranes, read-out: PKi alpha-1 1a (converted)): 1510 nM
- Ki [2, 3]: 5.75 nM
- Ki (α2C receptor; [3H]rauwolscine, human α2C receptor, LM(tk-) cells, read-out: PKi alpha-2 2c (converted)): 1070 nM

Structure (SMILES): CC(=O)C1=C(C)NC(CCCCN)=C(C(=O)NCCCN2CCC(c3ccccc3)(c3ccccc3)CC2)C1c1ccc([N+](=O)[O-])cc1 (stereo not drawn) [Example 176, 5-Acetyl-2-(4-aminobutyl)-1,4-dihydro-6-methyl-4-(4-nitrophenyl)-3-{N-[3-(4,4-diphenylpiperidin-1-yl)propyl]}carboxamidopyridine]
- Ki ([1]; PKi alpha-1 1a, [3H]prazosin, cloned human receptor, LM(tk-) cell membranes, mean): 309 nM
- Ki ([2]; PKi alpha-1 1c, cloned human receptor, LM(tk-) cell membranes, mean): 3.72 nM
- Ki (α2C receptor; [3H]rauwolscine, human receptor, LM(tk-) cell lysates, mean, read-out: PKi alpha-2 2c (converted)): 724 nM

Structure (SMILES): COC(=O)C1=C(C)NC(C)=C(C(=O)NCCCN2CCC(c3ccccc3)CC2)C1c1ccc([N+](=O)[O-])cc1 (single isomer, unassigned; (+)) [(+)-45, 1,4-Dihydro-3-methoxycarbonyl-2,6-dimethyl-4-(4-nitrophenyl)-5-{N-[3-(4-phenylpiperidin-1-yl)propyl]}carboxamidopyridine hydrochloride hemihydrate]
- Ki [1, 4]: 178 nM
- Ki [2, 5]: 9.33 nM
- Ki (α2C receptor; [6]): 22.4 nM

Structure (SMILES): CC1=C(C(N)=O)C(c2cccc([N+](=O)[O-])c2)C(C(=O)NCCCN2CCC(c3ccccc3)CC2)=C(C)N1 (stereo not drawn) [Example 62]
- Ki [1, 4]: 339 nM
- Ki [2, 5]: 2.63 nM
- Ki (α2C receptor; [6]): 49 nM

Structure (SMILES): CCC1=C(C(=O)NCCCN2CCC(c3ccccc3)CC2)C(c2ccc([N+](=O)[O-])cc2)C(C(=O)OC)=C(C)N1 (stereo not drawn) [Example 74, 2-Ethyl-1,4-dihydro-5-methoxycarbonyl-6-methyl-4-(4-nitro)phenyl-3-(N-(3-(4-phenylpiperidin-1-yl)propyl)) carboxamidopyridine hydrochloride hydrate]
- Ki [1, 4]: 58.9 nM
- Ki [2, 5]: 0.501 nM
- Ki (α2C receptor; [6]): 23.4 nM

Structure (SMILES): COC(=O)C1(c2ccccc2)CCN(CCCNC(=O)C2=C(COCCCN)NC(C)=C(C(C)=O)C2c2ccc([N+](=O)[O-])cc2)CC1 (stereo not drawn) [Example 241, 5-Acetyl-2-((3-aminopropyl)oxy)methyl-1,4-dihydro-3-(N-(3-(4-methoxycarbonyl-4-phenylpiperidin-1-yl)propyl))carboxamido-6-methyl-4-(4-nitro)phenylpyridine]
- Ki ([1]; PKi alpha-1 1a): 1450 nM
- Ki [2, 3]: 4.37 nM
- Ki (α2C receptor; PKi alpha-2 2c): 398 nM

Structure (SMILES): CCNC(=O)C1=C(CC)NC(COCCN)=C(C(=O)NCCCN2CCC(C(=O)OC)(c3ccccc3)CC2)C1c1ccc([N+](=O)[O-])cc1 (stereo not drawn) [Example 233, 2-((2-Aminoethyl)oxy)methyl-6-ethyl-5-N-ethylcarboxamido-1,4-dihydro-3-(N-(3-(4-methoxycarbonyl-4-phenylpiperidin-1-yl)propyl))carboxamido-4-(4-nitro)phenylpyridine]
- Ki ([1]; PKi alpha-1 1a): 4070 nM
- Ki ([2]; cloned human receptor, LM(tk-) cell membranes, mean, read-out: PKi alpha-1 1c (converted)): 2.14 nM
- Ki (α2C receptor; PKi alpha-2 2c): 1660 nM

Structure (SMILES): COC(=O)C1=C(C)NC(C)=C(C(=O)NCCCN2CCC(c3ccccc3)CC2)C1c1ccc([N+](=O)[O-])cc1 (racemic) [(±)-45, (±)-1,4-Dihydro-3-methoxycarbonyl-2,6-dimethyl-4-(4-nitrophenyl)-5-{N-[3-(4-phenylpiperidin-1-yl)propyl]}carboxamidopyridine hydrochloride hemihydrate]
- Ki [1, 4]: 66.1 nM
- Ki [2, 5]: 0.234 nM
- Ki (α2C receptor; [6]): 81.3 nM

Structure (SMILES): COC(=O)C1=C(C)NC(C)=C(C(=O)NCCCCN2CCC(c3ccccc3)CC2)C1c1ccc([N+](=O)[O-])cc1 (stereo not drawn) [Example 3, 1,4-Dihydro-3-methoxycarbonyl-2,6-dimethyl-4-(4-nitrophenyl)-5-{N-[4-(4-phenylpiperidin-1-yl)butyl]}carbozamidopyridine hydrochloride hydrate]
- Ki [1, 4]: 145 nM
- Ki [2, 5]: 5.89 nM
- Ki (α2C receptor; [6]): 51.3 nM

Structure (SMILES): CCC1=C(C(N)=O)C(c2ccc([N+](=O)[O-])cc2)C(C(=O)NCCCN2CCC(O)(c3ccccc3)CC2)=CN1CC.Cl.O (stereo not drawn) [Example 101, 5-Carboxamido-1,6-diethyl-1,4-dihydro-3-{N-[3-(4-hydroxy-4-phenylpiperidin-1-yl)propyl]}carboxamido-4-(4-nitrophenyl)pyridine hydrochloride hydrate]
- pKi alpha-1 1a [1, 7]: 5.86
- pKi alpha-1 1c [2, 8]: 8.54
- pKi alpha-2 2c (α2C receptor; [9]): 6.04

Structure (SMILES): CC1=C(C(=O)NCCCN2CCC(c3ccccc3)CC2)C(c2ccc([N+](=O)[O-])cc2)c2c([nH]c(=O)[nH]c2=O)N1 (stereo not drawn) [Example 63, 1,4-Dihydro-6-methyl-4-(4-nitrophenyl)-5-{N-[3-(4-phenylpiperidin-1-yl)propyl]}carboxamido-[2,3, d]uracilylpyridine]
- Ki [1, 4]: 44.7 nM
- Ki [2, 5]: 38.9 nM
- Ki (α2C receptor; [6]): 170 nM

Structure (SMILES): CC1=C(C(N)=O)C(c2ccc([N+](=O)[O-])cc2)C(C(=O)NCCCN2CCC(C(=O)OCCC#N)(c3ccccc3)CC2)=CN1C (stereo not drawn) [Example 209, 5-Carboxamido-3-{N-[3-(4-(2-cyanoethoxycarbonyl)-4-phenylpiperidin-1-yl)propyl]}carboxamido-1,4-dihydro-1,6-dimethyl-4-(4-nitrophenyl) pyridine]
- PKi alpha-1 1a ([1]; [3H]prazosin, cloned human receptor, LM(tk-) cell membranes, mean): 5.17
- PKi alpha-1 1c ([2]; cloned human receptor, LM(tk-) cell membranes, mean): 8.41
- PKi alpha-2 2c (α2C receptor; [3H]rauwolscine, human receptor, LM(tk-) cell lysates, mean): 5.70

Structure (SMILES): COc1ccccc1N1CCN(CCCNC(=O)C2=C(C)NC(C)=C(C(N)=O)C2c2ccc([N+](=O)[O-])cc2)CC1 (stereo not drawn) [Example 124]
- Ki ([1]; [3H]prazosin, cloned human α1A receptor, LM(tk−) cell membranes, read-out: pKi alpha-1 1a (converted)): 57.5 nM
- Ki ([2]; cloned human α1C receptor, LM(tk−) cell membranes, read-out: pKi alpha-1 1c (converted)): 1.95 nM
- Ki (α2C receptor; [3H]rauwolscine, human α2C receptor, LM(tk−) cells, read-out: pKi alpha-2 2c (converted)): 44.7 nM

Structure (SMILES): CCC1=C(C(N)=O)C(c2ccc([N+](=O)[O-])cc2)C(C(=O)NC2CCN(CCc3c[nH]c4ccccc34)CC2)=CN1CC (stereo not drawn) [Example 122, 5-Carboxamido-1,4-dihydro-3-(N-{1-[2-(3-indolyl)ethyl]piperidin-4-yl}) carboxamido-1,6-diethyl-4-(4-nitrophenyl)pyridine]
- pKi alpha-1 1a [1, 7]: 6.62
- pKi alpha-1 1c [2, 8]: 7.71
- pKi alpha-2 2c (α2C receptor; [9]): 6.53
